Results taken from patent US8658826B2, “Amino acid derivatives used as pharmaceutical substances” (Dritte Patentportfolio Beteiligungsgesellschaft mgH & Co. KG, priority 2008, dated 2014).

Assay: oral bioavailability study with rats: benzamidine plasma levels after oral valbenzamidoxime
Assay type: in vivo, rat
Settings: oral 50 mg/kg
Experimental: For proving the resorption from the gastrointestinal tract and the subsequent reduction to benzamidine, the valbenamidoxime is orally administered to three rats. The metabolization of the ester into benzamidine in this case takes place in vivo as follows:
The anaesthesia was carried out using xylazine and ketamine. Both were administered by intramuscular injection. The silicone catheters were implanted in the vena jugularis and the arteria carotis. They have locally antithrombotic and anti-inflammatory properties, but are not systemically active. During the surgery, the eyes were protected with a cornea-protective ointment (Oculotect®), and 3-4 ml of Ringer lactate solution was applied subcutaneously for improving the postoperative energy supply. The animals were treated antiphlogistically (Finadyne®, 1 mg/kg of body weight) and antibiotically (Amoxicillin® 15%, 10 mg/kg of body weight) and postoperatively attended and kept warm until they woke up. The day after the surgery, the animals got Nutri Plus®, an energy paste (soy bean oil, molasses, cod-liver oil, meat extract, mineral premixture, vitamin premixture).
Male Wistar rats having an average weight of 200 g served as the test animals. The animals were kept individually in cages. Every second day they got concentrated food. […]
For separating the substances to be analyzed, the following HPLC method was used: […]

CC(C)C(N)C(=O)O/N=C(\N)c1ccccc1 (stereo not shown) [valbenzamidoxime]
resorption of the prodrug after oral administration and metabolization into benzamidine: completely resorbed after oral administration and metabolized into the active form benzamidine
